In ChEMBL document CHEMBL4765473, “PF-07059013: A Noncovalent Modulator of Hemoglobin for Treatment of Sickle Cell Disease” (J Med Chem, 2021):
In brackets after ≈: the same amount, converted by molar mass. Activity calls are given as the source filed them. The calls are words filed in the database; no cut-off is given here.

Experiments:
[1] = Modulation of HbS (unknown origin) assessed as stabilization of the oxy-state of hemoglobin by measuring conversion from oxyHb (R) to deoxyHb (T) pre-incubated for 1 hr and measured after 120 mins by oxygen dissociation assay; design: species or system Homo sapiens
[2] = Binding affinity to purified human cross-linked HbS by SPR analysis
[3] = Distribution coefficient, log D of the compound by shake flask method; format: physicochemical; details: octanol/water
[4] = Intrinsic clearance in human hepatocytes assessed per million cells; format: ADME, cell-based, Hepatocyte; details: read-out: CLH
[5] = target: T1, Voltage-gated inwardly rectifying potassium channel KCNH2 (Homo sapiens, UniProt Q12809); test: Binding affinity to human ERG by dofetilide fluorescence polarization binding assay
T1 sequence (Q12809 whole entry): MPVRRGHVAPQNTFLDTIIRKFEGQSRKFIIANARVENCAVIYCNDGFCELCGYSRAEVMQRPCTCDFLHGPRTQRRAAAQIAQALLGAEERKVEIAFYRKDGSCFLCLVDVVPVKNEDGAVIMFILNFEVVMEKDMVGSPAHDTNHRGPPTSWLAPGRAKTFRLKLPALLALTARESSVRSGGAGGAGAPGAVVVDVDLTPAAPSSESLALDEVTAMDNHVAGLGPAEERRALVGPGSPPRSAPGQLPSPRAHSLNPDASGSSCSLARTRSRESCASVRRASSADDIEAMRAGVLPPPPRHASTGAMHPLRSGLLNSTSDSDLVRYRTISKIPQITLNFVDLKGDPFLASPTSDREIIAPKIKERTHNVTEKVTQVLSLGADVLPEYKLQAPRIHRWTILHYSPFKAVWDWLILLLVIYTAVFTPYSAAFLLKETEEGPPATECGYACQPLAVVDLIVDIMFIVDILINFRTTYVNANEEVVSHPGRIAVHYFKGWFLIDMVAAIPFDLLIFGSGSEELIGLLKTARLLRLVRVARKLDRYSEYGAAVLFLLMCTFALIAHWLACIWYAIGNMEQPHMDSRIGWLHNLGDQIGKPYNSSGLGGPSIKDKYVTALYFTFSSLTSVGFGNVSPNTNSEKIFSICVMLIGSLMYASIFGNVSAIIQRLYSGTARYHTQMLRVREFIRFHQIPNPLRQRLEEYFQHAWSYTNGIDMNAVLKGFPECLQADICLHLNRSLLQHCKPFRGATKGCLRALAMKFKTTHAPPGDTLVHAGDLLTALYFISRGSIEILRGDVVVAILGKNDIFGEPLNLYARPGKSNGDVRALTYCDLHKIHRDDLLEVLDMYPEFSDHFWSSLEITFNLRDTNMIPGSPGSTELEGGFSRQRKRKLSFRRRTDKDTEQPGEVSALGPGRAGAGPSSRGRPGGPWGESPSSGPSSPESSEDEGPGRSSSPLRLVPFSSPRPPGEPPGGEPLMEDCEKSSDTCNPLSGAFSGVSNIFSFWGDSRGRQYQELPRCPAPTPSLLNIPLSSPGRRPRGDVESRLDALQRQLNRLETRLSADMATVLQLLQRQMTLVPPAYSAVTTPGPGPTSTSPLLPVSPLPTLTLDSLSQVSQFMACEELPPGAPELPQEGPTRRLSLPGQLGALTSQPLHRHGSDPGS

[6] = Kinetic solubility of the compound; format: physicochemical; details: read-out: Kinetic_solubility
[7] = Thermodynamic solubility of the compound; format: physicochemical; details: read-out: Therm_solubility
CYP1A2 = target: T2, CYP1A2 (Homo sapiens, UniProt P05177); test: Inhibition of CYP1A2 (unknown origin) at 3 uM relative to control; format: ADME
T2 sequence (P05177 whole entry): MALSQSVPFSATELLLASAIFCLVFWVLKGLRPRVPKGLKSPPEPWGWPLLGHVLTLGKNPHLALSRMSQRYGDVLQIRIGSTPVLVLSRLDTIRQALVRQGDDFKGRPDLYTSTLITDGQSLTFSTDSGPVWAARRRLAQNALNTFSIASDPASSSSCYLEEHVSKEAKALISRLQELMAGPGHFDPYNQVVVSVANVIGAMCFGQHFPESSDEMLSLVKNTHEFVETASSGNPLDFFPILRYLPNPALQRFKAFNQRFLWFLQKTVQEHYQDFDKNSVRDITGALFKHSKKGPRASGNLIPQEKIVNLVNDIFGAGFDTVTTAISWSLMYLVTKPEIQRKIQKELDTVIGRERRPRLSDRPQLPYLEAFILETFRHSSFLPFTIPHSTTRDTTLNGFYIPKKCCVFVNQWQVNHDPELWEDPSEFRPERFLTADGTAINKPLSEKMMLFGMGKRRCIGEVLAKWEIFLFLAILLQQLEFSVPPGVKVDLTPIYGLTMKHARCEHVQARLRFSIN

CYP2C8 = target: T3, CYP2C8 (Homo sapiens, UniProt P10632); test: Inhibition of CYP2C8 (unknown origin) at 3 uM relative to control; format: ADME
T3 sequence (P10632 whole entry): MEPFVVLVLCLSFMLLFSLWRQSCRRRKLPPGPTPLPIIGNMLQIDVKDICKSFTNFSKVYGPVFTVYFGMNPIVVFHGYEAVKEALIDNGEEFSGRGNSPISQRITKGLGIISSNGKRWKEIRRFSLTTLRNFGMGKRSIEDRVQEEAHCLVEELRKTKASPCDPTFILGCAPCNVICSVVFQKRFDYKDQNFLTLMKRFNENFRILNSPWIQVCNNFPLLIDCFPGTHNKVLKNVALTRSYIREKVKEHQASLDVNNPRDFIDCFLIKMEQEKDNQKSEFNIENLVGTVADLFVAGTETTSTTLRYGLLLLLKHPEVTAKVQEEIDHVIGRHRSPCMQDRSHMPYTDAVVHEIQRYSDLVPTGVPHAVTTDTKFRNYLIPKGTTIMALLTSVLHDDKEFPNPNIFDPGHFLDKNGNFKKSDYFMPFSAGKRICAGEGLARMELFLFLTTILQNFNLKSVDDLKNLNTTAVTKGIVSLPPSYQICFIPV

CYP3A4 = CYP3A4 (Homo sapiens, UniProt P08684); test: Inhibition of CYP3A4 (unknown origin) at 3 uM relative to control; format: ADME
CYP3A4, sequence (P08684 whole entry): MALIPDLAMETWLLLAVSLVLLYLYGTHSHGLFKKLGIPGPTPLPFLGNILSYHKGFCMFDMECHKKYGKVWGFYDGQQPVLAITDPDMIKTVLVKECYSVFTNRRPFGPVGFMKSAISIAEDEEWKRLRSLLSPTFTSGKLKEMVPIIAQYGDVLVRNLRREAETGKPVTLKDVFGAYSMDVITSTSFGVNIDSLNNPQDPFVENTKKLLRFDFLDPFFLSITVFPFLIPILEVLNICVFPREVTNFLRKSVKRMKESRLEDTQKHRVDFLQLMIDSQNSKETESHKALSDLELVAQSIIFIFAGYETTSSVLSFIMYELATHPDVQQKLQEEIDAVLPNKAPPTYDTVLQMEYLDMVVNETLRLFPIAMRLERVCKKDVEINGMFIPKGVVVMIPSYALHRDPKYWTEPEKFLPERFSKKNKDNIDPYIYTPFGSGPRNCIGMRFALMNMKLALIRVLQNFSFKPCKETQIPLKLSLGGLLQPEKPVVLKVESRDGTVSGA

[8] = Apparent permeability in MDCK cells; format: ADME, cell-based, Canis lupus familiaris; details: dog
CYP2C9 = CYP2C9 (Homo sapiens, UniProt P11712); test: Inhibition of CYP2C9 (unknown origin) at 3 uM relative to control; format: ADME
CYP2C9, sequence (P11712 whole entry): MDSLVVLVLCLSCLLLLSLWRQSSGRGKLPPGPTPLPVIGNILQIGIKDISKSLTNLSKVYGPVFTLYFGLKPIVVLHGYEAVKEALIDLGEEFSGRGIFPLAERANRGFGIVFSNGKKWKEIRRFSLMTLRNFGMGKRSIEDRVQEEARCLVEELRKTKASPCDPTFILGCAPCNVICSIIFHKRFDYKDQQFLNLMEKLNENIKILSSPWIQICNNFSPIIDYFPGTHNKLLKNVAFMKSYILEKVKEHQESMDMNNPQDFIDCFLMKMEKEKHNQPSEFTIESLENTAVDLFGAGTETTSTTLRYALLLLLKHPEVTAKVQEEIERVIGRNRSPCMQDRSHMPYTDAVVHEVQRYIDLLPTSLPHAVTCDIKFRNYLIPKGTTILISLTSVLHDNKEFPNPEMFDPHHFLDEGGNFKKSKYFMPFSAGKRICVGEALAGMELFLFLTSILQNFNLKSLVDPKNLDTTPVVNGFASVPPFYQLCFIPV

CYP2D6 = CYP2D6 (Homo sapiens, UniProt P10635); test: Inhibition of CYP2D6 (unknown origin) at 3 uM relative to control; format: ADME
CYP2D6, sequence (P10635 whole entry): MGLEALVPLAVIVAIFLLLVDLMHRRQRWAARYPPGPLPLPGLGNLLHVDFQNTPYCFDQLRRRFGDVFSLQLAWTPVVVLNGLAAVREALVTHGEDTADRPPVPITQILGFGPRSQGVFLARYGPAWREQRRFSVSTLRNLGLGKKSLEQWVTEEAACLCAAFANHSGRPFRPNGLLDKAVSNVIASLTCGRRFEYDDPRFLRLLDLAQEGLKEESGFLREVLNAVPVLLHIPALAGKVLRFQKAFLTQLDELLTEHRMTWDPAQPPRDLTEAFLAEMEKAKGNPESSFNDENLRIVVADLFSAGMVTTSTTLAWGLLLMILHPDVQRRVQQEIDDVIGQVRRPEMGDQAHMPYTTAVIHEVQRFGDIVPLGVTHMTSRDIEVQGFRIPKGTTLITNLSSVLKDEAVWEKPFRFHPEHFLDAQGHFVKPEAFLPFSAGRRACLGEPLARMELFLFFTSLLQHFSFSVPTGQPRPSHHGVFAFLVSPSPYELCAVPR

[9] = Intrinsic clearance in mouse hepatocytes assessed per million cells; format: ADME, cell-based, Hepatocyte; details: read-out: CLH
Homo sapiens [10] = species: Homo sapiens; test: Binding affinity to HbS (unknown origin) by ITC analysis; details: filed as modulator
Homo sapiens [11] = species: Homo sapiens; test: Binding affinity to HbS tetramer (unknown origin) by ESI-MS analysis; details: filed as modulator
[12] = Protein binding in human blood; format: ADME, tissue-based
Cytochrome P450 2D6 = Cytochrome P450 2D6 (Homo sapiens, UniProt P10635); test: Inhibition of CYP2D6 (unknown origin); format: ADME
Cytochrome P450 2D6, sequence (P10635 whole entry): as above

[13] = Unbound fraction in human plasma; format: ADME, cell-free
Cytochrome P450 2C9 = Cytochrome P450 2C9 (Homo sapiens, UniProt P11712); test: Inhibition of CYP2C9 (unknown origin); format: ADME
Cytochrome P450 2C9, sequence (P11712 whole entry): as the sequence (P11712 whole entry) above

Cytochrome P450 1A2 = target: T4, Cytochrome P450 1A2 (Homo sapiens, UniProt P05177); test: Inhibition of CYP1A2 (unknown origin); format: ADME
T4 sequence (P05177 whole entry): T2 sequence (P05177 whole entry)

[14] = Drug metabolism in human hepatocytes assessed formation of glucuronide metabolites; format: ADME, cell-based, Hepatocyte
Cytochrome P450 3A4 = Cytochrome P450 3A4 (Homo sapiens, UniProt P08684); test: Inhibition of CYP3A4 (unknown origin); format: ADME
Cytochrome P450 3A4, sequence (P08684 whole entry): as the sequence (P08684 whole entry) above

Cytochrome P450 2C8 = target: T5, Cytochrome P450 2C8 (Homo sapiens, UniProt P10632); test: Inhibition of CYP2C8 (unknown origin); format: ADME
T5 sequence (P10632 whole entry): T3 sequence (P10632 whole entry)

[15] = target: T1, Voltage-gated inwardly rectifying potassium channel KCNH2; test: Inhibition of human ERG by patch clamp assay
Mus musculus = test: Binding to HbS in sickle Townes mouse at 10 to 490 mg/kg, po dosed via gavage measured after 0.5 to 24 hrs by Hemox-analyzer based assay; format: functional, organism-based; details: dose 10-490 mg/kg, time 0.5-24 hrs
[16] = Modulation activity at HbS in sickle Townes mouse assessed as decrease in RBC sickling at 200 mg/kg, po BID for 15 days dosed via gavage by Hemox-analyzer based assay; format: functional; design: scale not given: the % may be the effect or the level left; details: time 15 day
[17] = Apparent permeability from basolateral to apical side in MDCK-MDR1 cells; format: ADME, cell-based, Canis lupus familiaris; details: dog
[18] = Apparent permeability from apical to basolateral side in MDCK-MDR1 cells; format: ADME, cell-based, Canis lupus familiaris; details: dog
[19] = Protein binding in human RBC assessed as unbound fraction at 1 mM; format: ADME, tissue-based, Erythrocyte; details: red blood cells (RBC)

| IC50 [1] [µM] | Kd [2] [µM] | logD [3] | hepatocyte CLint [4] [µL/min/1e6 cells] | SMILES | Ki [5] [µM] | other results |
| --- | --- | --- | --- | --- | --- | --- |
| 5.4 | 0.122 | 3.2 | 14 | C[C@H](Oc1cc2cc(C(N)=O)ccc2nc1N)c1cc(F)c(F)cc1-n1cccn1 | 4.1 |  |
| 5.5 | 0.381 | 4.3 | 24 | C[C@H](Oc1cc2cc(C#N)ccc2nc1N)c1cc(F)c(F)cc1-n1cccn1 | 19 |  |
| 5.4 | 0.183 | 1.9 | < 2 | C[C@H](Oc1cc2cc(C(N)=O)ccc2nc1N)c1ncc(F)cc1-n1cccn1 | 34 | solubility kinetic [6]: 28.5 µg/mL (≈ 72.6 µM); solubility thermodynamic [7]: 5.3 µg/mL (≈ 13.5 µM) |
| 5.7 | 0.115 | 4.1 | 57 | C[C@H](Oc1cc2cc(F)ccc2nc1N)c1cc(F)c(F)cc1-n1cccn1 | 4.4 |  |
| 4.3 | 0.059 | 2.1 | 4 | C[C@H](Oc1cc2cc(C(N)=O)ccc2nc1N)c1cc2c(cnn2CCO)cc1-n1cccn1 | > 40 |  |
| 4.9 | 0.1 | 0.9 | 4 | C[C@H](Oc1cc2cc(F)ccc2nc1N)c1cc(C(=O)O)ccc1-n1cccn1 | > 40 |  |
| 11 | 0.402 | 3 | 13 | C[C@H](Oc1cc2cc(C(N)=O)ccc2nc1N)c1cc(F)ccc1-n1cccn1 | 24 |  |
| 5.5 | 0.036 | 2.7 | < 3 | C[C@H](Oc1cc2cc(C(N)=O)ccc2nc1N)c1cc2[nH]ncc2cc1-n1cccn1 | 13 | Papp [8]: 1.4 ×10⁻⁶ cm/s |

Second part, the compound before the results:

| SMILES | IC50 [1] [µM] | Kd [2] [µM] | logD [3] | hepatocyte CLint [4] [µL/min/1e6 cells] | Ki [5] [µM] | other results |
| --- | --- | --- | --- | --- | --- | --- |
| C[C@H](Oc1cc2cc(C(N)=O)ccc2nc1N)c1nc(OCCO)ccc1-n1cccn1 | 5.3 | 0.142 | 1.8 | 3 |  |  |
| C[C@H](Oc1cc2c(F)ccc(F)c2nc1N)c1cc(C(=O)O)ccc1-n1cccn1 | 4.5 | 0.064 | 1.1 | < 3 |  |  |
| C[C@H](Oc1cc2cc(C#N)ccc2nc1N)c1cc(F)ccc1-n1cccn1 | 6.1 | 0.322 | 3.8 | 40 | > 40 |  |
| C[C@H](Oc1cc2cc(C(N)=O)cc(F)c2nc1N)c1ncc(F)cc1-n1cccn1 | 3.9 | 0.068 | 2.1 | 4 | > 40 | solubility kinetic [6]: 0.5 µg/mL (≈ 1.22 µM); solubility thermodynamic [7]: 0.6 µg/mL (≈ 1.46 µM) |
| C[C@H](Oc1cc2cc(F)cc(F)c2nc1N)c1[nH]c(=O)ccc1-n1cccn1 | 4.3 | 0.014 | 2.6 | 17 | 63 |  |
| C[C@H](Oc1cc2ccccc2nc1N)c1cc(F)ccc1-n1cccn1 | 17 | 1.5 | 4 |  |  |  |
| Cc1n[nH]cc1-c1cnc(N)c(O[C@H](C)c2cc(F)ccc2-n2cccn2)c1 |  | > 300 |  |  |  |  |
| C[C@H](Oc1cc2cc(F)ccc2nc1N)c1cc2c(cnn2CC(=O)O)cc1-n1cccn1 | 3.7 | 0.009 | 0.5 | 21 | > 40 |  |
| Cc1n[nH]cc1-c1cnc(N)c(O[C@@H](C)c2cc(F)ccc2-n2cccn2)c1 | 21 | 3.6 | 3.2 | 23 | 3.8 | inhibition at 3 µM (CYP1A2): < 50%; inhibition at 3 µM (CYP2C8): < 50%; inhibition at 3 µM (CYP3A4): < 50%; Papp [8]: 24 ×10⁻⁶ cm/s; inhibition at 3 µM (CYP2C9): < 50%; inhibition at 3 µM (CYP2D6): < 50%; hepatocyte CLint [9]: 104 µL/min/1e6 cells; Activity (Homo sapiens [10]): Active |
| Cc1n[nH]cc1-c1cnc(N)c(OC(C)c2cc(F)ccc2-n2cccn2)c1 (racemic) |  |  |  |  |  | Activity (Homo sapiens [11]): Active |
| C[C@H](Oc1cc2cc(F)ccc2nc1N)c1cc2c(cnn2CCO)cc1-n1cccn1 | 4.5 | 0.02 | 3.3 |  | 8.3 |  |
| C[C@H](Oc1cc2cc(F)ccc2nc1N)c1[nH]c(=O)ccc1-n1cccn1 [PF-07059013] | 4.8 | 0.034 | 2.4 | 18 | > 36 | PB [12]: Dose-dependent effect; IC50 (Cytochrome P450 2D6): > 30 µM; fraction unbound [13]: 0.162; IC50 (Cytochrome P450 2C9): 24.9 µM; IC50 (Cytochrome P450 1A2): 24.4 µM; Drug metabolism [14]: Metabolite_Detected; IC50 (Cytochrome P450 3A4): > 30 µM; Papp [8]: 20 ×10⁻⁶ cm/s; IC50 (Cytochrome P450 2C8): 21.8 µM; IC50 [15]: 43 µM; PPB (Mus musculus): Dose-dependent effect; Activity [16]: 37.8%; Papp B→A [17]: 14 ×10⁻⁶ cm/s; Papp A→B [18]: 0.1 ×10⁻⁶ cm/s; fraction unbound at 1000 µM [19]: 0.000598 |
